Test results taken from patent publication US10718028B2, “Fluorescent probes for abasic site detection” (CASE WESTERN RESERVE UIVERSITY, priority 2015, dated 2020).
“Also recorded” adds a separate entry of the source.

Molecular target: T1, APE (Homo sapiens, UniProt P27695)
T1 construct: purchased New England BioLabs
Assay: SSB activity assay APE inhibition
Assay type: biochemical
Procedure: FIG. 7 illustrates the evaluation of APE inhibition by Cy7MX. […] APE is inhibited about 50% after 3 h incubation. The baseline reduction in cutting is due to competition of APE and Cy7MX for the AP-DNA substrate.
Meanwhile, five samples of each DNA reaction were prepared.
We determined if Cy7MX could inhibit the activity of the enzymes and thereby complicate the results on the assay. While the order of reagent addition in the assay may be structured to avoid enzyme inhibition, Cy7MX is envisioned as an imaging agent in living cells where the enzymes are constantly present. To test the possible inhibition of Cy7MX towards APE, the probe and enzyme were incubated together for a variable period of time then incubated for a fixed period of time with AP DNA (U:A DNA pretreated with UDG). If the two species were only competing for substrate, then the extent of cutting observed would be independent of the APE+Cy7MX incubation time. Conversely, if Cy7MX inhibits the action of APE, then the extent of cutting would vary as a function of APE+Cy7MX incubation time. In either case, some baseline reduction in cutting was expected as Cy7MX and APE competed for substrate. […] However, this effect was only observed after 60 minutes. Thus, the one hour incubation of APE in the cutting assay is not expected to be negatively impacted by the presence of Cy7MX.

T1 sequence (P27695 whole entry): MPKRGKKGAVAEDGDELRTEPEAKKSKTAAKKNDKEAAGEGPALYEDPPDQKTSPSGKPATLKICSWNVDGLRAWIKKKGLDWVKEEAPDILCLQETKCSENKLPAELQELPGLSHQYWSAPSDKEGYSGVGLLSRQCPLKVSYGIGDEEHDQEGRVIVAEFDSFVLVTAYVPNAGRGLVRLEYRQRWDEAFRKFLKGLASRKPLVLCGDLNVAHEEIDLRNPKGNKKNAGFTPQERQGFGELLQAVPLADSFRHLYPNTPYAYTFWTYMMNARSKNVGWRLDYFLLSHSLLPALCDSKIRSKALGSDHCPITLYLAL

For `CCCN1/C(=C/C=C2\CCCC(/C=C/C3=[N+](CCC)c4ccccc4C3(C)C)=C2Oc2ccc(CC(=O)NCCCON)cc2)C(C)(C)c2ccccc21` [Cy7MX, 2-((E)-2-((E)-2-(4-(2-((3-(aminooxy)propyl)amino)-2-oxoethyl)phenoxy)-3-((E)-2-(3,3-dimethyl-1-propylindolin-2-ylidene)ethylidene)cyclohex-1-en-1-yl)vinyl)-3,3-dimethyl-1-propyl-3H-indol-1-ium 2,2,2-trifluoroacetate], the APE inhibition (60 min APE incubation) was “no detectable inhibition”, the APE inhibition (APE and Cy7MX incubated together before addition of AP-DNA, variable time, 2,2,2-trifluoroacetate) was “did have inhibitory effects on APE; also recorded: mild inhibition” and the APE inhibition (after 3 h incubation of APE with Cy7MX) was “about 50%”. The APE inhibition (tetrahydrofuran (THF) base in place of the AP site) was “moderate inhibition of APE”.
